This is an account of results in patent US20260083769A1, “2-Aminopropane-1,3-Diol-Capped Cationic Peptoids for Nucleic Acid Delivery” (NUTCRACKER THERAPEUTICS, INC., priority 2022, published 2026).

Like-named read-outs stand apart in the source and are kept apart here. Where a SMILES comes first, the peptide text is derived from it. [ ]: non-standard residue; d: D form. Gly(Nα-oleyl) = CCCCCCCC/C=C\CCCCCCCCNCC(=O)O; N(2-ethylhexyl)Gly = CCCCC(CC)CNCC(=O)O; Gly(N-dodecyl) = CCCCCCCCCCCCNCC(=O)O; N(CH(CH2OH)2)Gly = O=C(O)CNC(CO)CO; N(octyl)Gly = CCCCCCCCNCC(=O)O; NDecylGly = CCCCCCCCCCNCC(=O)O

Data set [1] can be described thus: Apparent particle pKa, TNS fluorescence assay. In kind it is physicochemical. Particulars: Table 5; apparent particle pKa of delivery vehicle. The procedure:
The apparent particle pKa was assessed by a TNS fluorescence assay. Briefly, particles were diluted to 130 uM total lipid in TNS buffer ranging in pH 3-11 for 10 minutes with […] of TNS probe. The fluorescence was measured at room temperature in a plate reader ex 320/em 445. Fluorescence intensity was normalized to the minimal and maximal values and the pKa was determined by a 3 parameter fit to determine the half maximum of the curve.

Data set [2] in a line: RBC hemolysis as metric for fusogenicity. In kind it is cell-based. The following applies: sheep red blood cells (RBCs), 5% v/v, Table 5, delivery vehicle, 37° C. 45 min. The procedure: RBC hemolysis was used as a metric for fusogenicity of LNPs at low pH. […] Particles were diluted to […] total lipid in well with 5% RBC solution and incubated at 37° C. for 45 min. Supernatant was collected and absorbance read on a microplate reader at 425 nm. Fusion was normalized to a fully lysed sample with 2% Triton™ and a buffer-only control. % hemolysis=100*[(ABS T-background)−(ABS sample-background)/(ABS T-background)].

The nature of data set [3]: Zeta potential of delivery vehicles. The class given is physicochemical. Particulars: Table 5; delivery vehicle, pH 7 buffer; in mV (unit assumed). The procedure:
(§1) In one particular instance, the size and polydispersity (PDI) of delivery vehicles was measured by dynamic light scattering in PBS using a DynaPro® plate reader III. The zeta potential of delivery vehicles was determined using Nano-ZS™ particle analyzer. Zeta sample was diluted to 30 uM total lipid in a weakly buffered solution of 10 mM HEPES, 10 mM MES, 10 mM ammonium acetate pH 7. Measurements were collected in duplicate for over 30 run with the voltage manually set to […]

Data set [4] is described as follows: Particle size and polydispersity (PDI) of delivery vehicles by dynamic light scattering. In kind it is physicochemical. The following applies: Table 5; delivery vehicle comprising the peptoid, Formulation D22, fLuc mRNA. The procedure: The resulting delivery vehicle complexes were evaluated by dynamic light scattering (DLS) to determine the volume average particle size/diameter (nm) and the size polydispersity index (PDI) within the delivery vehicle complex.
Particle size. Particle sizes and size distributions were measured using a Wyatt DynaPro® Plate Reader III. In general, formulated samples were diluted to 2 ng/μL in 100 µL PBS. Data is reported as the hydrodynamic diameter (in nm) of the cumulant fit of the correlation function, and the polydispersity of that measurement.
as §1

A short description of data set [5]: Percent encapsulated mRNA, RiboGreen assay. In kind it is physicochemical. The following applies: Table 5; delivery vehicle comprising the peptoid, Formulation D22, fLuc mRNA. The procedure: Percent encapsulation. The percentage of mRNA encapsulated within the delivery vehicle complexes containing Fluc mRNA was determined using a modified RiboGreen® assay. In general, formulated mRNA samples were diluted to 500 ng/ml in Tris-EDTA buffer with or without Triton-X™. RiboGreen® (Invitrogen) was added at a 200-fold dilution, and the plate was incubated for 5 minutes. Fluorescence was measured at Ex. […]/Em. 520 nm and encapsulated mRNA was calculated by taking the ratio of fluorescence for non-lysed particles versus lysed particles.
The mRNA concentration and the percentage of encapsulated mRNA were determined using a fluorescence-based Quant-iT™ RiboGreen® RNA Reagent Kit using a literature procedure. To determine the mRNA concentration, delivery vehicles were incubated with 2% Triton™ X-100 for 10 min to release entrapped mRNA, followed by addition of RiboGreen® RNA reagent. The fluorescence intensity of mRNA-RiboGreen® reagent complex (excitation at 485 nm and emission at 530 nm) was detected using a microplate reader. The ratio of fluorescence without and with Triton™ X-100 were used to calculate the percentage of encapsulated mRNA.

Setting [6] is: pH 5, read-out: Hemolysis at pH 5.
The mark [7] stands for this setting: pH 7, read-out: Hemolysis at pH 7.

Take `CCCCCCCC/C=C\CCCCCCCCN(CC(N)=O)C(=O)CN(CCCCCCCC)C(=O)CN(CCCCCCCC/C=C\CCCCCCCC)C(=O)CNC(CO)CO` [Compound 20] (H-[N(CH(CH2OH)2)Gly][Gly(Nα-oleyl)][N(octyl)Gly][Gly(Nα-oleyl)]-NH2): in data set [1], the “pKa (TNS)” value was 5.773. For the same compound, the hemolysis at 45 min, 150 mM total lipid in data set [2] (setting [6]) amounted to 16.7%; in data set [2] (setting [7]) it was 33.3%. In addition, in data set [3], the “Zeta Potential” value was determined as 3.41. The same compound yielded a PDI in data set [4] of 0.18. The “Particle Size (nm)” value in data set [4] turned out to be 65.4 nm. Also, in data set [5], the “% Encapsulation” value came to 70.1%.

For `CCCCCCCCCCCCN(CC(N)=O)C(=O)CN(CCCCCCCCCCCC)C(=O)CN(CCCCCCCCCCCC)C(=O)CN(CCCCCCCCCCCC)C(=O)CNC(CO)CO` [Compound 21], the “pKa (TNS)” value in data set [1] is reported as 5.406. In addition, the hemolysis at 45 min, 150 mM total lipid is 35.8% in data set [2] (setting [6]) and 59.5% in data set [2] (setting [7]). Moreover, in data set [3], the “Zeta Potential” value is listed as 2.7. In addition, in data set [4], the PDI came out at 0.262. Further, the “Particle Size (nm)” value in data set [4] was found to be 66.4 nm. The “% Encapsulation” value in data set [5] is listed as 81.2%.

Consider `CCCCCCCCCCCCN(CC(=O)N(CCCCCCCCCC)CC(=O)N(CCCCCCCCCCCC)CC(=O)N(CCCCCCCCCC)CC(N)=O)C(=O)CNC(CO)CO` [Compound 22], for which, in data set [1], the “pKa (TNS)” value turned out to be 5.888. The hemolysis at 45 min, 150 mM total lipid in data set [2] (setting [6]) amounted to 58.9%. Further, in data set [2] (setting [7]), the hemolysis at 45 min, 150 mM total lipid was 81.5%. Further, the “Zeta Potential” value in data set [3] is given as 4.24. Besides, in data set [4], the PDI came out at 0.179 and the “Particle Size (nm)” value was 51.5 nm. In addition, the “% Encapsulation” value in data set [5] stood at 83.3%.

As for `CCCCC(CC)CN(CC(N)=O)C(=O)CN(CC(CC)CCCC)C(=O)CN(CC(CC)CCCC)C(=O)CN(CC(CC)CCCC)C(=O)CNC(CO)CO` (stereo not drawn) [Compound 24], the “pKa (TNS)” value in data set [1] was 6.43. The results for the hemolysis at 45 min, 150 mM total lipid in data set [2] (setting [6]) and in data set [2] (setting [7]) were 100% and 99.9%, respectively. Besides, in data set [3], the “Zeta Potential” value was −1.59. This compound also gave a PDI in data set [4] of 0.12. In addition, the “Particle Size (nm)” value in data set [4] was found to be 66.9 nm. The “% Encapsulation” value in data set [5] stood at 97.6%.

For the compound `CCCCCCCCCCCCN(CC(=O)N(CCCCCCCCCC)CC(N)=O)C(=O)CN(CCCCCCCCCC)C(=O)CN(CCCCCCCCCC)C(=O)CN(CCCCCCCCCCCC)C(=O)CN(CCCCCCCCCC)C(=O)CNC(CO)CO` [Compound 27] (H-[N(CH(CH2OH)2)Gly][NDecylGly][Gly(N-dodecyl)][NDecylGly][NDecylGly][Gly(N-dodecyl)][NDecylGly]-NH2), the “pKa (TNS)” value in data set [1] was 5.48. The hemolysis at 45 min, 150 mM total lipid in data set [2] (setting [6]) is 12.4%. Besides, in data set [2] (setting [7]), the hemolysis at 45 min, 150 mM total lipid amounted to 9.1%. The “Zeta Potential” value in data set [3] is listed as 1.84. Besides, in data set [4], the PDI was 0.214 and the “Particle Size (nm)” value was determined as 107.6 nm. Moreover, in data set [5], the “% Encapsulation” value stood at 87.9%.

Turning to `CCCCCCCCCCN(CC(=O)N(CC(N)=O)CC(CC)CCCC)C(=O)CN(CCCCCCCC)C(=O)CN(CC(CC)CCCC)C(=O)CN(CCCCCCCCCC)C(=O)CN(CCCCCCCC)C(=O)CNC(CO)CO` (stereo not drawn) [Compound 28] (H-[N(CH(CH2OH)2)Gly][N(octyl)Gly][NDecylGly][N(2-ethylhexyl)Gly][N(octyl)Gly][NDecylGly][N(2-ethylhexyl)Gly]-NH2), the “pKa (TNS)” value in data set [1] came out at 5.844. For the same compound, in data set [2] (setting [6]), the hemolysis at 45 min, 150 mM total lipid was determined as 15.1%. For the same compound, in data set [2] (setting [7]), the hemolysis at 45 min, 150 mM total lipid turned out to be 5.6%. Also, the “Zeta Potential” value in data set [3] was −5.98. Further, in data set [4], the PDI was found to be 0.089 and the “Particle Size (nm)” value worked out at 86.6 nm. For the same compound, the “% Encapsulation” value in data set [5] stood at 82.2%.
